# Experiments:
# B16-OVA tumor cells = test: B16-OVA tumor cell proliferation in vitro; format: cell-based, mouse; conditions: 5×10^4 B16-OVA cells, various doses, 12 hours
# Method: In a further experiment, tumor cells were treated with SAA in vitro. Briefly, 5×10^4 B16-OVA tumor cells were treated with SAA of various doses respectively in a 96-well plate. Cell number was counted 12 hours after said SAA treatment.
# FLT3L-DCs = test: FLT3L-DC cross-priming of OT-I T cells in vitro (IFN-γ cytometric bead array); format: cell-based, mouse; conditions: 10 μM SAA 12 hours
# Method: Bone marrow was isolated from wild-type and Ythdf1^−/− mice and treated with red cell lysis buffer to remove red blood cell. IMDM medium containing 10% fetal bovine serum was used to suspend bone marrow cells. To culture FLT3L-DCs, cell concentration was adjusted to 1×10^6/mL. Cells were cultured with 100 ng/mL FLT3L for 9 days to get mature FLT3L-DCs. Mature FLT3L-DCs were purified via EasySep Mouse CD11c Positive Selection Kit II, then treated with 10 μM SAA or DMSO in IMDM medium (contain 10% bovine and 100 ng/mL FLT3L) for 10 hours.
# For in vitro cross-presentation study, mature FLT3L-DCs were harvested on day 9 and purified by EasySep Mouse CD11 c Positive Selection Kit II, then treated with 10 μM SAA or DMSO in IMDM medium (contain 10% bovine and 100 ng/mL FLT3L) for 10 h. […] Then antigen-obtained DCs were purified and co-cultured with naïve T cells from OT-1 mice at a ratio of 1:10 for 96 h. The co-culture medium was 1640 RPMI contains 10% fetal bovine with or without 1 μg/mL OT-1 (OVA 257-264) peptide. […] Supernatant IFN-γ production was detected via CBA assay.
# Bone marrow derived cells (wildtype or Ythdf1 gene deficient) were cultured with FLT3L for 9 days to get FLT3L-DC and these DCs were treated with 10 μM SAA for 12 hours, then, FLT3L-DCs were co-cultured with necrotic B16-OVA tumor cell for 6 hours. […] IFN-γ production was assessed by IFN-γ cytometric bead array.
# [1] = test system: classical DCs in draining lymph node; test: Ex vivo direct-priming by DCs sorted from draining lymph node of treated mice with OT-I peptide; format: in vivo, mouse; conditions: four DC subtypes from SAA treated mice, 1 μg/mL OT-I peptide
# Method: For in vitro cross-presentation study, mature FLT3L-DCs were harvested on day 9 and purified by EasySep Mouse CD11 c Positive Selection Kit II, then treated with 10 μM SAA or DMSO in IMDM medium (contain 10% bovine and 100 ng/mL FLT3L) for 10 h. […] Then antigen-obtained DCs were purified and co-cultured with naïve T cells from OT-1 mice at a ratio of 1:10 for 96 h. The co-culture medium was 1640 RPMI contains 10% fetal bovine with or without 1 μg/mL OT-1 (OVA 257-264) peptide. For ex vivo DCs cross-presentation assay, four types of DCs (migration CD11b DC, migration CD103′ DC, resident CD11b DC and resident CD8^+ DC) were sorted in draining lymph node from SAA treated B16-OVA bearing mice at day 12. These DCs were co-cultured with OT-1 naïve T cells in the ratio of 1:10 for 96 hours with or without OT-1 peptide. Supernatant IFN-γ production was detected via CBA assay.
# Dendritic cells can activate T cells through cross-priming and/or direct-priming. In direct-priming process, DCs could stimulate T cells via surface co-stimulatory molecules such as CD80/CD86 or cytokines related with T cell activation. […] IFN-γ production was assessed by IFN-γ cytometric bead array. […] Then, IFN-γ production was assessed by IFN-γ cytometric bead array.
# B16-OVA tumor = B16-OVA tumor growth in Ythdf1F/F and CD11ccreYthdf1F/F mice; format: in vivo, mouse; conditions: 2×10^6 B16-OVA, 10 μM SAA day 9 and day 11
# Method: For B6 mice tumor growth, 5×10^5 B16-OVA or 1×10^6 E.G7-OVA tumor cells were inoculated subcutaneously (s.c.) into the flank of mice. Tumor length (a) and width (b) was measured every two days and tumor volume was calculated by the formula ab^2/2. For the inhibitor treatment, 10 μM SAA or DMSO was injected intraperitoneally (i.p.) on day 9 and 11 after tumor inoculation. For other mice model (rag1^−/− and Ythdf1 conditional knockout), times and dose of inhibitor treatment was the same. For α-PD-L1 and SAA combination treatment, 5×10^5 B16-OVA tumor cells were inoculated subcutaneously into the flank of mice. 100 μg α-PD-L1 antibody (clone 10F.9G2) or rat immunoglobulin were administered at day 9 after tumor inoculation. 10 μM SAA or DMSO was administered in the same way on day 9 and 11 after tumor injection.
# To determine whether DCs are the major targets of SAA, Ythdf1^F/F and CD11c^creYthdf1^F/F mice were injected subcutaneously with 2×10^6 B16-OVA cells. Then, 10 μM SAA was injected to each mouse on day 9 and day 11, and tumor growth was monitored.
# [2] = test system: tumor infiltrating T cells; test: Tumor infiltrating T cell function (PMA/ionomycin, intracellular staining); format: in vivo, mouse; conditions: B16-OVA bearing mice, PMA and ionomycin stimulation
# Method: (§1) Tumor infiltrating leukocytes were resuspended by RPMI 1640 medium at 5×10^6 per mL in 96-well plates. Phorbol-12-myristate-13-acetate (PMA) (2.5 μg/mL) and ionomycin (0.5 μg/mL) were used to stimulate T cells together with brefeldin A were added to the culture medium for 2 hours at 37° C. Cell concentration of total lymphocytes from draining lymph node was adjusted to 5×10^6 per mL in 96-well plate. 1 μg/mL OT-1 (OVA 257-264) peptide was added to the wells and stimulated for 96 hours. Samples were stained with CD45 and CD8 on ice for 30 min. Intracellular staining was performed to quantify IFN-γ and granzyme B production.
# To explore the effects of SAA treatment on T cell function, SAA treated B16-OVA bearing mice were sacrificed to investigate tumor infiltrating T cell (TILs) function. Firstly, Phorbol-12-myristate-13-acetate (PMA) and ionomycin were used to nonspecifically stimulate tumor infiltrating T cell, then intracellular staining was performed to quantify cytokine (e.g., IFN-γ, granzyme B) production by FACS.
# [3] = test system: draining lymph node T cells; test: Draining lymph node T cell IFN-γ after OT1 peptide stimulation; format: in vivo, mouse; conditions: 1 μg/mL OT1 peptide
# Method: as §1
# Then, lymphocytes from draining lymph node were isolated and stimulated with 1 μg/mL OT1 peptide, and IFN-γ producing cell were analyzed by FACS.
structure (smiles),measurement,setting,value
"O=C(/C=C/c1ccc(O)c(O)c1/C=C/c1ccc(O)c(O)c1)O[C@H](Cc1ccc(O)c(O)c1)C(=O)O [SAA, Salvianolic Acid A]",proliferation of tumor cells (cell number),B16-OVA tumor cells,not affected
same,cross-presentation function (IFN-γ production),FLT3L-DCs; Ythdf1-/- FLT3L-DCs,could also promote the cross-presentation function
same,cross-priming of T cells (IFN-γ production),FLT3L-DCs; wildtype FLT3L-DCs,better ability in cross-priming T cells than control group
same,direct-priming capacity of DC subtypes (IFN-γ production),[1],3 of the 4 DC subtypes showed improved direct-priming capacity
same,tumor growth,B16-OVA tumor; CD11ccreYthdf1F/F mice,no further evident effect of tumor control
same,tumor growth,B16-OVA tumor; Ythdf1F/F mice,showed analogous situation as observed in CD11c^creYthdf1^F/F mice
same,"cytokine (IFN-γ, granzyme B) production by tumor infiltrating T cells",[2],higher level of cytokines than DMSO group
same,IFN-γ production by DLN T cells,[3],much more IFN-γ than DMSO group

# Reference: patent US20240033244A1, “COMPOSITIONS AND METHODS FOR INHIBITING YTHDF1” (SHANGHAI INSTITUTE OF MATERIA MEDICA, CHINESE ACADEMY OF …, priority 2020, published 2024)
